Measurements reported in patent US10039753B2, “Imidazo[4,5-c]quinoline and imidazo[4,5-c][1,5]naphthyridine derivatives as LRRK2 inhibitors” (Pfizer Inc., priority 2015, dated 2018).
pIC50: −log10 of the molar value. Where a name gives a salt, the structure may show the parent alone.

Tests used:
mutant G2019S LRRK2 = mutant G2019S LRRK2 (Homo sapiens, UniProt Q5S007, G2019S); test: LRRK2 Assay, Format 2 (Lantha Screen), G2019S mutant; assay type: biochemical; parameters: purchased Invitrogen PV4881; conditions: geometric mean of 2-4 determinations unless otherwise indicated (a: >=5; b: single determination); read-out: LRRK2, Format 2 G2019S IC50
Sequence of mutant G2019S LRRK2 (Q5S007 970-2527 G2019S limits assumed): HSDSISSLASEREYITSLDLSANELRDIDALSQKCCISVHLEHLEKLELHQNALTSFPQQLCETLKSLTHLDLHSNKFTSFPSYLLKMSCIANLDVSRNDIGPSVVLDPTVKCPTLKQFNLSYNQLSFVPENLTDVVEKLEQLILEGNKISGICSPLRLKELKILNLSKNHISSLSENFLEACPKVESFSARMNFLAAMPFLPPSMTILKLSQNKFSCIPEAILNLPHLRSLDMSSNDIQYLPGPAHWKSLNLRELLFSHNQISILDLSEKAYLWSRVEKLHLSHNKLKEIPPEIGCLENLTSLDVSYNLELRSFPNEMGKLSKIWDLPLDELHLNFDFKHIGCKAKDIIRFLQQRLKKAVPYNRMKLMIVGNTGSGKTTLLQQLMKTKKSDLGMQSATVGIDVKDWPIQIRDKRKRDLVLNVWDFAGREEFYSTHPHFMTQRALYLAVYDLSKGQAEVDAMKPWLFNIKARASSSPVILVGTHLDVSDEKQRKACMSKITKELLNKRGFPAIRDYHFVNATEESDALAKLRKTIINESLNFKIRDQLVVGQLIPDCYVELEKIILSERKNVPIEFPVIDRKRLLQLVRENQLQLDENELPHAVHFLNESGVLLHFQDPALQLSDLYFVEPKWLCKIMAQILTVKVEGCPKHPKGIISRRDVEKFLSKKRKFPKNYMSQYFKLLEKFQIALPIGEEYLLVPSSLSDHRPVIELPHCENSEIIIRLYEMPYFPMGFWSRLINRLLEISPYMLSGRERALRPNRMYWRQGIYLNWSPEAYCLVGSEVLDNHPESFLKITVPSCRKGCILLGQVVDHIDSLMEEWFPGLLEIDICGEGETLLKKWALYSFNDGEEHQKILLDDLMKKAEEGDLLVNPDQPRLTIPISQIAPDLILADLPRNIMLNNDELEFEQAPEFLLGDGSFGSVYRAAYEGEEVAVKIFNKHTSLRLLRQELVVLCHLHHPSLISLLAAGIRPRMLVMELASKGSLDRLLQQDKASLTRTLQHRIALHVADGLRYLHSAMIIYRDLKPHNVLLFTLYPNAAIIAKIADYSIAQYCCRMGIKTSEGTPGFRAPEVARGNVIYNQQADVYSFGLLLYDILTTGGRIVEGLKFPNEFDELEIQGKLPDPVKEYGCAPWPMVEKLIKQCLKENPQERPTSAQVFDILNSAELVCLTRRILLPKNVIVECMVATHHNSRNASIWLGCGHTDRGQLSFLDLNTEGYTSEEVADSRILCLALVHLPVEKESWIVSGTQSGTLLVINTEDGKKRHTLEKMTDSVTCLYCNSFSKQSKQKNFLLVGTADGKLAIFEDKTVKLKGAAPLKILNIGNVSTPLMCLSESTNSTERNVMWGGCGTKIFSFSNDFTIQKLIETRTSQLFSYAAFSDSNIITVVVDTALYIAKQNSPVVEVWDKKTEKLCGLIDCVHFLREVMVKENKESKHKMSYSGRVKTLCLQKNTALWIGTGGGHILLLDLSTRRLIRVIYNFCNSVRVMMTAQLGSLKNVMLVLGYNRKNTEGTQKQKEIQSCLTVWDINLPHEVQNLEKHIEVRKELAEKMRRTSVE
Protocol: (§1) LRRK2 kinase activity was measured using Lantha Screen technology from Invitrogen. GST-tagged truncated LRRK2 from Invitrogen (Cat # PV4874) was incubated with a fluorescein-labeled peptide substrate based upon ezrin/radixin/moesin (ERM), also known as LRRKtide (Invitrogen cat # PR8976A), in the presence of a dose response of compound. Upon completion, the assay was stopped and detected with a terbium labeled anti-phospho-ERM antibody (Invitrogen, cat # PR8975A). […] Using Echo acoustic dispensing, 60 nL of compound was transferred to a low volume Corning 384-well assay plate. 3 μL of a working solution of substrate (200 nM LRRKtide, […]) prepared in assay buffer (50 mM HEPES, pH 7.5, 3 mM MgCl2, with 2 mM DTT and 0.01% Brij35 added fresh) was added to the 60 nL compound assay plate. The kinase reaction was started with […] of a working solution of LRRK2 enzyme at a concentration of […]. The final reaction concentrations were 100 nM LRRKtide, […], […] LRRK2 enzyme and a compound dose response with a top dose of 3 mM. The reaction was allowed to progress at room temperature for 30 minutes and then stopped with the addition of […] of detection buffer (20 mM Tris pH 7.6, 0.01% NP-40, 6 mM EDTA with 2 nM terbium labeled anti-phospho-ERM). After an incubation of 1 hour at room temperature, the plate was read on an Envision with an excitation wavelength of 340 nm and a reading emission at both 520 nm and 495 nm. The ratio of the 520 nm and 495 nm emission was used to analyze the data. Inhibition of mutant G2019S LRRK2 (Invitrogen cat # PV4881) was measured in the exact same method. All final concentrations of substrate ATP and enzyme were the same.

[1] = target: T1, GST-tagged truncated LRRK2 (Homo sapiens, UniProt Q5S007); test: LRRK2 Assay, Format 2 (Lantha Screen), WT; assay type: biochemical; conditions: geometric mean of 2-4 determinations unless otherwise indicated (a: >=5; b: single determination)
T1 construct: GST-tagged truncated LRRK2 from Invitrogen (Cat # PV4874); GST; purchased Invitrogen PV4874
T1 sequence (Q5S007 970-2527 limits assumed): as the sequence (Q5S007 970-2527 G2019S limits assumed) above, with S1050G counted along it
Protocol: as §1

Structure (SMILES) | pIC50 (mutant G2019S LRRK2) | pIC50 [1]
C[C@@H]1C[C@H](n2c(Cc3cn(C)cn3)nc3cnc4ccc(Cl)cc4c32)CCO1 [Example 131, 8-chloro-2-[(1-methyl-1H-imidazol-4-yl)methyl]-1-[(2R,4R)-2-methyltetrahydro-2H-pyran-4-yl]-1H-imidazo[4,5-c]quinoline] | 8.10 | 8.14
Cc1cc(Cc2nc3cnc4ccc(C#N)cc4c3n2[C@@H](C)CF)no1 [Example 243, 1-[(2S)-1-fluoropropan-2-yl]-2-[(5-methyl-1,2-oxazol-3-yl)methyl]-1H-imidazo[4,5-c]quinoline-8-carbonitrile, formate salt] | 7.07 | 7.31
CO[C@H]1C[C@@H](n2c(Cn3cc(C)cn3)nc3cnc4ccc(Cl)cc4c32)C1 [Example 180, 8-chloro-1-[(1s,3s)-3-methoxycyclobutyl]-2-[(4-methyl-1H-pyrazol-1-yl)methyl]-1H-imidazo[4,5-c]quinoline] | 7.52 | 7.52
Cc1nn2cc(Cc3nc4cnc5ccc(C#N)cc5c4n3CC(C)(F)F)nc2s1 [Example 226, 1-(2,2-difluoropropyl)-2-[(2-methylimidazo[2,1-b][1,3,4]thiadiazol-6-yl)methyl]-1H-imidazo[4,5-c]quinoline-8-carbonitrile] | 8.24 | 8.34
Cc1cc(Cc2nc3cnc4ccc(C#N)cc4c3n2C2CCC(F)(F)C2)no1 (stereo not drawn) [Example 246, 1-(3,3-difluorocyclopentyl)-2-[(5-methyl-1,2-oxazol-3-yl)methyl]-1H-imidazo[4,5-c]quinoline-8-carbonitrile, formate salt] | 7.06 | 7.19
Cc1cnc(Cc2nc3cnc4ccc(C#N)cc4c3n2C2CCOC(C)(C)C2)cn1 (single isomer, unassigned; ent-1) [Example 215, 1-(2,2-dimethyltetrahydro-2H-pyran-4-yl)-2-[(5-methylpyrazin-2-yl)methyl]-1H-imidazo[4,5-c]quinoline-8-carbonitrile, ENT-1] | 7.86 | 7.87
CCc1cnn(Cc2nc3cnc4ccc(C#N)cc4c3n2CC(C)(F)F)c1 [Example 209, 1-(2,2-difluoropropyl)-2-[(4-ethyl-1H-pyrazol-1-yl)methyl]-1H-imidazo[4,5-c]quinoline-8-carbonitrile] | 8.00 | 8.10
C[C@@H]1C[C@H](n2c(Cc3nc(C4CC4)n(C)n3)nc3cnc4ccc(Cl)cc4c32)CCO1 [Example 191, 8-chloro-2-[(5-cyclopropyl-1-methyl-1H-1,2,4-triazol-3-yl)methyl]-1-[(2R,4R)-2-methyltetrahydro-2H-pyran-4-yl]-1H-imidazo[4,5-c]quinoline] |  | 7.13
CCC(F)(F)Cn1c(Cc2noc(C)n2)nc2cnc3ccc(Cl)cc3c21 [Example 185, 8-chloro-1-(2,2-difluorobutyl)-2-[(5-methyl-1,2,4-oxadiazol-3-yl)methyl]-1H-imidazo[4,5-c]quinoline] |  | 7.14
CO[C@H]1C[C@H](n2c(Cn3cc(C)nn3)nc3cnc4ccc(Cl)cc4c32)C1 [Example 188, 8-chloro-1-[(1r,3r)-3-methoxycyclobutyl]-2-[(4-methyl-1H-1,2,3-triazol-1-yl)methyl]-1H-imidazo[4,5-c]quinoline] |  | 6.96

Continued, values first:

pIC50 (mutant G2019S LRRK2) | pIC50 [1] | Structure (SMILES)
8.13 | 8.13 | C[C@@H]1C[C@H](n2c(Cc3cc4n(n3)CCC4)nc3cnc4ccc(Cl)cc4c32)CCO1 [Example 166, 8-chloro-2-(5,6-dihydro-4H-pyrrolo[1,2-b]pyrazol-2-ylmethyl)-1-[(2R,4R)-2-methyltetrahydro-2H-pyran-4-yl]-1H-imidazo[4,5-c]quinoline, trifluoroacetate salt]
8.22 | 8.27 | Cc1cc(Cc2nc3cnc4ccc(C#N)cc4c3n2[C@@H]2CCO[C@H](C)C2)on1 [Example 95, 2-[(3-Methyl-1,2-oxazol-5-yl)methyl]-1-[(2R,4R)-2-methyltetrahydro-2H-pyran-4-yl]-1H-imidazo[4,5-c]quinoline-8-carbonitrile]
8.48 | 8.25 | C[C@@H]1C[C@H](n2c(Cc3ccncn3)nc3cnc4ccc(C(F)(F)F)cc4c32)CCO1 [Example 178, 1-[(2R,4R)-2-methyltetrahydro-2H-pyran-4-yl]-2-(pyrimidin-4-ylmethyl)-8-(trifluoromethyl)-1H-imidazo[4,5-c]quinoline]
7.64 | 7.46 | CCC(F)(F)Cn1c(Cc2cnccn2)nc2cnc3ccc(Cl)cc3c21 [Example 184, 8-chloro-1-(2,2-difluorobutyl)-2-(pyrazin-2-ylmethyl)-1H-imidazo[4,5-c]quinoline]
7.95 | 8.04 | CC(F)(F)Cn1c(Cc2cscn2)nc2cnc3ccc(C#N)cc3c21 [Example 224, 1-(2,2-difluoropropyl)-2-(1,3-thiazol-4-ylmethyl)-1H-imidazo[4,5-c]quinoline-8-carbonitrile]
7.69 | 7.81 | N#Cc1ccc2ncc3nc(Cn4cc(C5CC5)nn4)n([C@@H]4CC[C@H](F)C4)c3c2c1 (single isomer, unassigned; ent-1) [Example 202, 2-[(4-cyclopropyl-1H-1,2,3-triazol-1-yl)methyl]-1-(cis-3-fluorocyclopentyl)-1H-imidazo[4,5-c]quinoline-8-carbonitrile, ENT-1]
8.38 | 8.44 | C[C@@H]1C[C@H](n2c(Cn3cnnn3)nc3cnc4ccc(Cl)cc4c32)CCO1 [Example 129, 8-chloro-1-[(2R,4R)-2-methyltetrahydro-2H-pyran-4-yl]-2-(1H-tetrazol-1-ylmethyl)-1H-imidazo[4,5-c]quinoline, formate salt]
7.92 | 7.85 | Cc1cc(Cc2nc3cnc4ccc(Cl)cc4c3n2[C@@H]2CCO[C@H](CO)C2)no1 [Example 137, [(2S,4R)-4-{8-chloro-2-[(5-methyl-1,2-oxazol-3-yl)methyl]-1H-imidazo[4,5-c]quinolin-1-yl}tetrahydro-2H-pyran-2-yl]methanol]
7.96 | 7.98 | C[C@@H]1C[C@H](n2c(Cc3ccccn3)nc3cnc4ccc(Cl)cc4c32)CCO1 [Example 250, 8-chloro-1-[(2R,4R)-2-methyltetrahydro-2H-pyran-4-yl]-2-(pyridin-2-ylmethyl)-1H-imidazo[4,5-c]quinoline, formate salt]
 | 7.27 | Cc1cc(Cc2nc3cnc4ccc(C#N)cc4c3n2C2CCCC2(F)F)no1 (single isomer, unassigned; ent-1) [Example 143, 1-(2,2-difluorocyclopentyl)-2-[(5-methyl-1,2-oxazol-3-yl)methyl]-1H-imidazo[4,5-c]quinoline-8-carbonitrile, ENT-1]
 | 7.17 | FCCn1c(Cc2cnccn2)nc2cnc3ccc(Cl)cc3c21 [Example 182, 8-chloro-1-(2-fluoroethyl)-2-(pyrazin-2-ylmethyl)-1H-imidazo[4,5-c]quinoline]
 | 7.90 | C[C@@H]1C[C@H](n2c(Cc3cn4c(n3)COCC4)nc3cnc4ccc(Cl)cc4c32)CCO1 [Example 192, 8-chloro-2-(5,6-dihydro-8H-imidazo[2,1-c][1,4]oxazin-2-ylmethyl)-1-[(2R,4R)-2-methyltetrahydro-2H-pyran-4-yl]-1H-imidazo[4,5-c]quinoline]
 | 7.00 | Cc1cc(Cc2nc3cnc4ccc(Cl)cc4c3n2CCF)no1 [Example 181, 8-chloro-1-(2-fluoroethyl)-2-[(5-methyl-1,2-oxazol-3-yl)methyl]-1H-imidazo[4,5-c]quinoline]
